T1: ZmGPDH1 (Zea mays, UniProt A0A345VNI6)
T1 construct: gene GPDH1; full-length CDS (458 residues, 51 kDa; 1377 bp) in pET32a(+) NcoI/XhoI, 6xHis fusion of about 65 kDa, E. coli Rosetta (DE3), Ni-NTA
T1 sequence (A0A345VNI6 1-458): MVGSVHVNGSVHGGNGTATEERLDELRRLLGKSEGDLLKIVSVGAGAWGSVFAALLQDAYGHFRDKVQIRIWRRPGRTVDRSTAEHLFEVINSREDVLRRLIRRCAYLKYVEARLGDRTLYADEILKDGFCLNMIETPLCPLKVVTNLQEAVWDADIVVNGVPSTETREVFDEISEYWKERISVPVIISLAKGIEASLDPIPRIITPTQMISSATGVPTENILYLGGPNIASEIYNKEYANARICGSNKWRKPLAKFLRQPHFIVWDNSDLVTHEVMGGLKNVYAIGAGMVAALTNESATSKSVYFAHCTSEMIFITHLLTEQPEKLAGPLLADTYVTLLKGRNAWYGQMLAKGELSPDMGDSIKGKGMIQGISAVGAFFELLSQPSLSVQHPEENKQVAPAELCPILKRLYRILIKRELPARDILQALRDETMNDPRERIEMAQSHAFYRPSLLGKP

B1: ZmGPDH1 (Zea mays subsp. mays) (protein)
chain: T1 sequence (A0A345VNI6 1-458)
notes: full-length CDS (458 residues, 51 kDa; 1377 bp) in pET32a(+) NcoI/XhoI, 6xHis fusion of about 65 kDa, E. coli Rosetta (DE3), Ni-NTA

What was measured:
[1] = target: T1, ZmGPDH1; experiment: GPDH activity with and without NADH; format: biochemical; conditions: 4 mM DHAP, 0.2 mM NADH, 100 mM HEPES pH 6.9 (general assay)
[2] = substrate: O=C(CO)COP(=O)(O)O; experiment: purified protein; format: biochemical, Zea mays; conditions: DHAP reduction, 0.2 mM NADH, 100 mM HEPES pH 6.9 (general assay)

| Molecule | GPDH activity with and without NADH [1] | Km [2] |
| --- | --- | --- |
| NC(=O)C1=CN([C@@H]2O[C@H](COP(=O)(O)OP(=O)(O)OC[C@H]3O[C@@H](n4cnc5c(N)ncnc54)[C@H](O)[C@@H]3O)[C@@H](O)[C@H]2O)C=CC1 [NADH] | addition of NADH strongly stimulated the enzyme activity | – |
| B1 | – | 2750 µM |

Source: publication PMC6327487, “A cytosolic NAD^+-dependent GPDH from maize (ZmGPDH1) is involved in conferring salt and osmotic stress tolerance” (BMC Plant Biology, 2019)
